target: Transcription factor p65 (Human, UniProt Q04206); assay: Inhibition of NF-kappaB in human HEK293 cells
Sequence (Q04206 whole entry): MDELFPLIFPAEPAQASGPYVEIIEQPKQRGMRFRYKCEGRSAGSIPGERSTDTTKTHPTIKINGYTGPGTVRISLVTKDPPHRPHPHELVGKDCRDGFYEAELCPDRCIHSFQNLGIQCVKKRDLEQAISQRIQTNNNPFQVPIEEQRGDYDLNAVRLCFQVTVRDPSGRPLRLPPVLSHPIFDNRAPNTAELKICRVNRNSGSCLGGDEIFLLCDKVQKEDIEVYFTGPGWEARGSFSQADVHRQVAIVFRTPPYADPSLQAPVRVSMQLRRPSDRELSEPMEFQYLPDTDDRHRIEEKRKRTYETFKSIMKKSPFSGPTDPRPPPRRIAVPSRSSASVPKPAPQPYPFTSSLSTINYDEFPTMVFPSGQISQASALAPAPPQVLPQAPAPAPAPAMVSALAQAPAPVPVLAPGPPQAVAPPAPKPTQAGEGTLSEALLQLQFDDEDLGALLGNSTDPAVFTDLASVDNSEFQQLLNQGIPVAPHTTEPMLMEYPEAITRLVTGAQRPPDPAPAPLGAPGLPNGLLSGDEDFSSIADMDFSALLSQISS

Going from `CCCCCCCCCCCCCCCCCCS(=O)(=O)NCCCNCCCCNCCCN` [N1-octadecanylsulfonyl-1,14-diamino-5,10-diazabutadecane] to `CCCCCCCCCCCCCCCCS(=O)(=O)NCCCNCCCCNCCCN` [N-(3-(4-(3-aminopropylamino)butylamino)propyl)hexadecane-1-sulfonamide], the IC50 falls from 2100 nM to 230 nM (9.1-fold).

`CCCCCCCCCCS(=O)(=O)NCCCNCCCCNCCCN` [N-(3-(4-(3-aminopropylamino)butylamino)propyl)decane-1-sulfonamide] and `CCCCCCCCCCCCS(=O)(=O)NCCCNCCCCNCCCN` [N-(3-(4-(3-aminopropylamino)butylamino)propyl)dodecane-1-sulfonamide] are within 1.5-fold of each other in IC50: 310 nM for the first, 340 nM for the second.

From BindingDB's records for doi:10.1016/j.bmcl.2006.09.026 (Mediquest Therapeutics, 2006)
